Measured values taken from ChEMBL document CHEMBL5528042, “Identification of Novel, Selective Ataxia-Telangiectasia Mutated Kinase Inhibitors with the Ability to Penetrate the Blood-Brain Barrier: The Discovery of AZD1390” (J Med Chem, 2024).
Values after ≈ are worked out from the molar mass of the structure shown. One block for each molecule: values may come before it.

Assays:
[1] = Volume of distribution at steady state in rat at 1 mg/kg,po or 0.5 mg/kg,iv administration measured for 24 hrs by LC-MS/MS analysis; type: ADME, organism-based; settings: in vivo
[2] = Bioavailability in rat at 1 mg/kg,po or 0.5 mg/kg,iv administration measured for 24 hrs by LC-MS/MS analysis; type: ADME, organism-based; settings: in vivo
[3] = Volume of distribution at steady state in dog at 2 mg/kg,po or 1 mg/kg,iv administration measured for 24 hrs by LC-MS/MS analysis; type: ADME, organism-based, Canis lupus familiaris; settings: in vivo
[4] = Bioavailability in dog at 2 mg/kg,po or 1 mg/kg,iv administration measured for 24 hrs by LC-MS/MS analysis; type: ADME, organism-based, Canis lupus familiaris; settings: in vivo
[5] = Dissociation constant, pKa of compound; type: physicochemical
[6] = biological target: Serine/threonine-protein kinase ATR (Homo sapiens, UniProt Q13535); assay: Inhibition of ATR in human HT-29 cells incubated for 2 hrs by Alexa Fluor 488/Hoeschst staining based plate reader assay; type: cell-based
Serine/threonine-protein kinase ATR, sequence (Q13535 whole entry): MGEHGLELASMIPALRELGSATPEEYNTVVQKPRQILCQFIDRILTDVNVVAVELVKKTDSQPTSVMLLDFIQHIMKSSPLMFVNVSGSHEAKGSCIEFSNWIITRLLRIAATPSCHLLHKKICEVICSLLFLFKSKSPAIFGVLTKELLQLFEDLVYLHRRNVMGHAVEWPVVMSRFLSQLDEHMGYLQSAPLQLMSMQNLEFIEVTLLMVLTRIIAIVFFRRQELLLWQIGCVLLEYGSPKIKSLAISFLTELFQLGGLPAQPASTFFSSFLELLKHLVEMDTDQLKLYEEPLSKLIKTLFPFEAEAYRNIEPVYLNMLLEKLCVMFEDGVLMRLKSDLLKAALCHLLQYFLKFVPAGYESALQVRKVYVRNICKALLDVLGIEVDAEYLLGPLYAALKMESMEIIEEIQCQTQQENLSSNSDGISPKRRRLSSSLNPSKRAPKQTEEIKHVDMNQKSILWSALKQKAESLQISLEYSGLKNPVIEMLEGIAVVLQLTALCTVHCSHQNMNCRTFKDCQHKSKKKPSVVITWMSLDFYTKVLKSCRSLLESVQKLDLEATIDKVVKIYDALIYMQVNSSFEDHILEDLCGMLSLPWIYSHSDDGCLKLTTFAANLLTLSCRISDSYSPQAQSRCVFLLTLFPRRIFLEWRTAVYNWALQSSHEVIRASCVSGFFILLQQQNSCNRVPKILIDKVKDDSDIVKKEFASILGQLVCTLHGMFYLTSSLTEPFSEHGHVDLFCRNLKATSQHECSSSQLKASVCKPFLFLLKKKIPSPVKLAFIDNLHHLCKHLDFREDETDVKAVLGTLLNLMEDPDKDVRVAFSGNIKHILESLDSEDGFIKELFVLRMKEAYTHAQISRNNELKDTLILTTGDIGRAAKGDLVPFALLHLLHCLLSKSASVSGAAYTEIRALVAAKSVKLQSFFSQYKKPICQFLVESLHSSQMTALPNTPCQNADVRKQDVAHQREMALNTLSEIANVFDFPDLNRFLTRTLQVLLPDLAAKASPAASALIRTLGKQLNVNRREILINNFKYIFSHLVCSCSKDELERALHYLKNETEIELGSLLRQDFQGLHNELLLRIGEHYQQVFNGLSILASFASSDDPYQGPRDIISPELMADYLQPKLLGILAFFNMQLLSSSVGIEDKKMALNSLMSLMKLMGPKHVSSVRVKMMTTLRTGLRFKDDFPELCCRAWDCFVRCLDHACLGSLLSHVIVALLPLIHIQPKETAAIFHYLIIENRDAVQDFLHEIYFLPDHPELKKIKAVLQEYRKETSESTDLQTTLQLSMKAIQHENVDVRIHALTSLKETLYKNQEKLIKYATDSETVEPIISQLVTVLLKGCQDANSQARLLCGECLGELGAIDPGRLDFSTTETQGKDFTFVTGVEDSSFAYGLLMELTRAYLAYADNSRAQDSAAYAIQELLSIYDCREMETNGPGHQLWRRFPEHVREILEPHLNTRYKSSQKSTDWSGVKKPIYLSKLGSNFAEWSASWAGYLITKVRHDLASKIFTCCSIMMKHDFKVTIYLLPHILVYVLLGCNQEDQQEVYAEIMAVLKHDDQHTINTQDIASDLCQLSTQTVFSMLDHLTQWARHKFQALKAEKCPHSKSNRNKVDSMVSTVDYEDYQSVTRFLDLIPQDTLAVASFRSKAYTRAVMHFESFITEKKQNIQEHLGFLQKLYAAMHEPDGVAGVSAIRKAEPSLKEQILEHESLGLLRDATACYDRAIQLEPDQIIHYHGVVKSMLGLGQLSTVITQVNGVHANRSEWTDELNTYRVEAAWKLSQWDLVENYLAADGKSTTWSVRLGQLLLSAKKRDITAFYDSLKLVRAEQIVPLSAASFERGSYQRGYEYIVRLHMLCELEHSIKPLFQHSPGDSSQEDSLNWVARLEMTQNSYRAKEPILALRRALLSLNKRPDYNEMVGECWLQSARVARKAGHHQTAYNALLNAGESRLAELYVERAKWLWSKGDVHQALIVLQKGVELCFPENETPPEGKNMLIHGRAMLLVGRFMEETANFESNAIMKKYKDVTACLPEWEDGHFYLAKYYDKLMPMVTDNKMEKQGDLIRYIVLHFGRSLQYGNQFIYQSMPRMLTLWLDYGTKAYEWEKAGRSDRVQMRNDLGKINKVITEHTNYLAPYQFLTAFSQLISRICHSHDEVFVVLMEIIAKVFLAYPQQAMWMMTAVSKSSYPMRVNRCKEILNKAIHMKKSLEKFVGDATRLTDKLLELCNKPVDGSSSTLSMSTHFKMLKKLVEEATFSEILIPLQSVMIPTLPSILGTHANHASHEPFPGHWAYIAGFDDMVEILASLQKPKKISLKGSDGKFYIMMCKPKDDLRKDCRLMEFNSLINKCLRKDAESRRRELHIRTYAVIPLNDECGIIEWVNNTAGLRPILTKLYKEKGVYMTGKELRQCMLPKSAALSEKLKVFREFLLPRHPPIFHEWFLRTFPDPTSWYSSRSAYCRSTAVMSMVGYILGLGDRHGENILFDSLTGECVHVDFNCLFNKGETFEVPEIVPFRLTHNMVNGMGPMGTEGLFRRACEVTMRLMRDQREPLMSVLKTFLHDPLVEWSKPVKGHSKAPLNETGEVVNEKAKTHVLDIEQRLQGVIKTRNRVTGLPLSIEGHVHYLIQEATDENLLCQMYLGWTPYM

[7] = Lipophilicity, logD of the compound at pH 7.4; type: physicochemical; settings: buffer
[8] = Aqueous solubility of the compound in pH 7.4; type: physicochemical; settings: buffer
[9] = Intrinsic clearance in human hepatocyte assessed per 10^6 cells; type: ADME, cell-based; settings: hepatocytes, read-out: CLH
[10] = Apparent permeability across apical to basolateral side in dog MDCKII-MDR1 cells overexpressing BCRP at 0.1 uM incubated for 90 mins by LC-MS/MS analysis; type: ADME, cell-based, Canis lupus familiaris, MDCK-MDR1
[11] = Apparent permeability across apical to basolateral side in dog MDCKII-MDR1 cells overexpressing BCRP at 1 uM incubated for 90 mins by LC-MS/MS analysis; type: ADME, cell-based, Canis lupus familiaris, MDCK-MDR1
[12] = Intrinsic clearance in rat hepatocyte assessed per 10^6 cells; type: ADME, cell-based; settings: hepatocytes, read-out: CLH
[13] = biological target: Phosphatidylinositol 4,5-bisphosphate 3-kinase catalytic subunit alpha isoform (Homo sapiens, UniProt P42336); assay: Inhibition of PI3Kalpha in human BT-474 cells incubated for 140 mins by ELISA; type: cell-based
Phosphatidylinositol 4,5-bisphosphate 3-kinase catalytic subunit alpha isoform, sequence (P42336 whole entry, canonical isoform): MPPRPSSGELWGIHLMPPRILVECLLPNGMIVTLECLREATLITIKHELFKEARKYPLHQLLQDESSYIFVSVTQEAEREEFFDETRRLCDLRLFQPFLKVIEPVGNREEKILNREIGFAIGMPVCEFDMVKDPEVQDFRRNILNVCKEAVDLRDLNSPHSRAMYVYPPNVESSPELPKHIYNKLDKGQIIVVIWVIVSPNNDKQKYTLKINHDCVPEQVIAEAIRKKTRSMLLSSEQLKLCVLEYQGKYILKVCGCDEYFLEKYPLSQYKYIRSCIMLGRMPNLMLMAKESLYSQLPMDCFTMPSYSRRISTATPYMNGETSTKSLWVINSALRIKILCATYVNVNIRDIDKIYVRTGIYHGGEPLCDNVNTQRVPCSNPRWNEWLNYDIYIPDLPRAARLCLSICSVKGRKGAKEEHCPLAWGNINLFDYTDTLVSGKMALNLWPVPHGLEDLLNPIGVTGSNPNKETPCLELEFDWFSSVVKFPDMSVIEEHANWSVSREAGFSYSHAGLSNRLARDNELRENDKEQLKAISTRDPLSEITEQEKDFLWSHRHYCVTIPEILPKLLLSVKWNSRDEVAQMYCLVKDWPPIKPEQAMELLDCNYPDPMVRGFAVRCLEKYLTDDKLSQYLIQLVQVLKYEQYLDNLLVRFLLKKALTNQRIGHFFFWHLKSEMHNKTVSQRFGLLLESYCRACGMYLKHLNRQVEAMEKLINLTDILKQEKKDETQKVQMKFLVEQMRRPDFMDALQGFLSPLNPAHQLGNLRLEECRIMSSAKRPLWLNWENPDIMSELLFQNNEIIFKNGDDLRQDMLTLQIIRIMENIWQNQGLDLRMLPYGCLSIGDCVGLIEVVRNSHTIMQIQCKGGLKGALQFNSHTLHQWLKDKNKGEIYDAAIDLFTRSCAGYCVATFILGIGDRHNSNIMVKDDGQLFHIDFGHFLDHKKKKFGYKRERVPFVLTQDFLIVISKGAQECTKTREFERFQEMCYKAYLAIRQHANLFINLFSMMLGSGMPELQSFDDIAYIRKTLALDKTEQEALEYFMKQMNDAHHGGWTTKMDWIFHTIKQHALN

[14] = biological target: Serine/threonine-protein kinase mTOR (Homo sapiens, UniProt P42345); assay: Inhibition of mTOR in human MDA-MB-468 cells incubated for 2.5 hrs by Alexa Fluor 488 staining based fluorescence analysis; type: cell-based
[15] = Plasma protein binding in rat assessed as unbound fraction incubated for 16 hrs by equilibrium dialysis based UPLC-MS/MS analysis; type: ADME, cell-free
[16] = Plasma protein binding in dog assessed as unbound fraction incubated for 16 hrs by equilibrium dialysis based UPLC-MS/MS analysis; type: ADME, cell-free, Canis lupus familiaris
[17] = Plasma protein binding in human assessed as unbound fraction incubated for 16 hrs by equilibrium dialysis based UPLC-MS/MS analysis; type: ADME, cell-free
[18] = Half life in rat at 1 mg/kg,po or 0.5 mg/kg,iv administration measured for 24 hrs by LC-MS/MS analysis; type: ADME, organism-based; settings: in vivo
[19] = biological target: DNA-dependent protein kinase catalytic subunit (Homo sapiens, UniProt P78527); assay: Inhibition of DNA-PK (unknown origin)
[20] = Half life in dog at 2 mg/kg,po or 1 mg/kg,iv administration measured for 24 hrs by LC-MS/MS analysis; type: ADME, organism-based, Canis lupus familiaris; settings: in vivo

SMILES: COCc1ccc(-c2ccc3ncc4c(c3c2)n(C2CCOCC2)c(=O)n4C)cn1
- IC50 [6]: > 12.6 µM
- logD [7]: 2.3
- solubility [8]: 19 µM (≈ 7.68 µg/mL)
- hepatocyte CLint [9]: < 3 µL/min/1e6 cells

SMILES: COCc1ccc(-c2ccc3ncc4c(c3c2)n([C@H]2CCCOC2)c(=O)n4C)cn1
- logD [7]: 2.5
- solubility [8]: 125 µM (≈ 50.6 µg/mL)
- Papp A→B at […], 0.1 µM [10]: 35 ×10⁻⁶ cm/s
- Papp A→B at […], 1 µM [11]: 27 ×10⁻⁶ cm/s
- hepatocyte CLint [9]: 3.2 µL/min/1e6 cells
- hepatocyte CLint [12]: 28 µL/min/1e6 cells

SMILES: CO[C@H]1CC[C@H](n2c(=O)n(C)c3cnc4ccc(-c5ccc(OCCCN(C)C)cc5)cc4c32)C1
- logD [7]: 2.7
- solubility [8]: 604 µM (≈ 287 µg/mL)
- Papp A→B at […], 0.1 µM [10]: 9.7 ×10⁻⁶ cm/s
- Papp A→B at […], 1 µM [11]: 18 ×10⁻⁶ cm/s
- hepatocyte CLint [9]: 8.7 µL/min/1e6 cells
- hepatocyte CLint [12]: 8.7 µL/min/1e6 cells

SMILES: CO[C@H]1C[C@H](n2c(=O)n(C)c3cnc4ccc(-c5ccc(OCCCN6CCCCC6)nc5)cc4c32)C1
- logD [7]: 2.4
- solubility [8]: > 1000 µM
- Papp A→B at […], 0.1 µM [10]: 17 ×10⁻⁶ cm/s
- hepatocyte CLint [9]: 2.6 µL/min/1e6 cells
- hepatocyte CLint [12]: 6.6 µL/min/1e6 cells
- IC50 [13]: 2 µM
- IC50 [14]: > 1.26 µM
- fraction unbound at 16 h [15]: 0.04
- fraction unbound at 16 h [16]: 0.22
- fraction unbound at 16 h [17]: 0.19
- Vdss [1]: 2.4 L/kg
- half-life [18]: 4 h
- bioavailability [2]: 19%

SMILES: CC(C)n1c(=O)n(C)c2cnc3cc(F)c(-c4ccc(N5CCN(C)CC5)nc4)cc3c21
- IC50 [6]: > 31.6 µM
- logD [7]: 3.2
- solubility [8]: 17 µM (≈ 7.39 µg/mL)
- Papp A→B at […], 0.1 µM [10]: 17 ×10⁻⁶ cm/s
- Papp A→B at […], 1 µM [11]: 19 ×10⁻⁶ cm/s
- hepatocyte CLint [9]: 6.5 µL/min/1e6 cells
- hepatocyte CLint [12]: 22 µL/min/1e6 cells
- pKa [5]: 7.8

SMILES: CC(C)n1c(=O)n(C)c2cnc3cc(F)c(-c4ccc(N5CCC(N(C)C)CC5)nc4)cc3c21
- IC50 [6]: > 31.6 µM
- logD [7]: 2.4
- solubility [8]: 787 µM (≈ 364 µg/mL)
- Papp A→B at […], 0.1 µM [10]: 9.4 ×10⁻⁶ cm/s
- Papp A→B at […], 1 µM [11]: 22 ×10⁻⁶ cm/s
- hepatocyte CLint [9]: 2.4 µL/min/1e6 cells
- hepatocyte CLint [12]: 6.3 µL/min/1e6 cells
- pKa [5]: 9.1

SMILES: Cn1c(=O)n(C2CCOCC2)c2c3cc(-c4ccc(OCCCN5CCCCC5)cc4)ccc3ncc21
- IC50 [6]: > 15.8 µM
- logD [7]: 2.5
- solubility [8]: 88 µM (≈ 44.1 µg/mL)
- Papp A→B at […], 0.1 µM [10]: 7.5 ×10⁻⁶ cm/s
- Papp A→B at […], 1 µM [11]: 13 ×10⁻⁶ cm/s
- hepatocyte CLint [9]: 2.9 µL/min/1e6 cells
- hepatocyte CLint [12]: 5.3 µL/min/1e6 cells

SMILES: COCc1ccc(-c2ccc3ncc4c(c3c2)n([C@H]2C[C@@H](CO)C2)c(=O)n4C)cn1
- logD [7]: 2
- solubility [8]: 990 µM (≈ 400 µg/mL)
- Papp A→B at […], 1 µM [11]: 3.2 ×10⁻⁶ cm/s
- hepatocyte CLint [9]: 3.5 µL/min/1e6 cells
- hepatocyte CLint [12]: 20 µL/min/1e6 cells

SMILES: CN(C)CCCOc1ccc(-c2ccc3ncc4c(c3c2)n([C@@H]2CCCOC2)c(=O)n4C)cc1
- IC50 [6]: > 31.6 µM
- logD [7]: 2.4
- solubility [8]: 851 µM (≈ 392 µg/mL)
- Papp A→B at […], 0.1 µM [10]: 9.7 ×10⁻⁶ cm/s
- Papp A→B at […], 1 µM [11]: 22 ×10⁻⁶ cm/s
- hepatocyte CLint [9]: 7.9 µL/min/1e6 cells
- hepatocyte CLint [12]: 8.1 µL/min/1e6 cells

SMILES: COCc1ccc(-c2ccc3ncc4c(c3c2)n([C@@H]2CC[C@@H](OC)C2)c(=O)n4C)cn1 (relative stereo)
- logD [7]: 3
- solubility [8]: 789 µM (≈ 330 µg/mL)
- Papp A→B at […], 0.1 µM [10]: 37 ×10⁻⁶ cm/s
- Papp A→B at […], 1 µM [11]: 24 ×10⁻⁶ cm/s
- hepatocyte CLint [9]: 5.3 µL/min/1e6 cells
- hepatocyte CLint [12]: 40 µL/min/1e6 cells

Continued, values first:

- Vdss [1]: 4.3 L/kg
- bioavailability [2]: 57%
- Vdss [3]: 18 L/kg
- bioavailability [4]: 54%
- pKa [5]: 9.4
SMILES: CN(C)CCCOc1ccc(-c2ccc3ncc4c(c3c2)n(C2CCOCC2)c(=O)n4C)cn1

- IC50 [6]: > 31.6 µM
- logD [7]: 2.7
- solubility [8]: 323 µM (≈ 135 µg/mL)
- Papp A→B at […], 1 µM [11]: 24 ×10⁻⁶ cm/s
- hepatocyte CLint [9]: 18 µL/min/1e6 cells
- hepatocyte CLint [12]: 46 µL/min/1e6 cells
SMILES: CC(C)n1c(=O)n(C)c2cnc3ccc(-c4ccc(OCCCN(C)C)cc4)cc3c21

- logD [7]: 2.4
- solubility [8]: > 1000 µM
- Papp A→B at […], 1 µM [11]: 27 ×10⁻⁶ cm/s
- hepatocyte CLint [9]: 6.2 µL/min/1e6 cells
- hepatocyte CLint [12]: 15 µL/min/1e6 cells
SMILES: CC(C)n1c(=O)n(C)c2cnc3ccc(-c4ccc(O[C@H]5CCN(C)C5)nc4)cc3c21

- logD [7]: 2.7
- solubility [8]: 42 µM (≈ 15.2 µg/mL)
- Papp A→B at […], 0.1 µM [10]: 39 ×10⁻⁶ cm/s
- hepatocyte CLint [9]: 34 µL/min/1e6 cells
- hepatocyte CLint [12]: 9 µL/min/1e6 cells
SMILES: COCc1ccc(-c2ccc3ncc4c(c3c2)n(C(C)C)c(=O)n4C)cn1

- IC50 [6]: > 15.8 µM
- logD [7]: 1.9
- solubility [8]: 39 µM (≈ 16.9 µg/mL)
- Papp A→B at […], 0.1 µM [10]: 5 ×10⁻⁶ cm/s
- hepatocyte CLint [9]: 2.1 µL/min/1e6 cells
- hepatocyte CLint [12]: 19 µL/min/1e6 cells
SMILES: CC(C)n1c(=O)n(C)c2cnc3ccc(-c4ccc(OCCCCN(C)C)nc4)cc3c21

- logD [7]: 2.6
- solubility [8]: 826 µM (≈ 380 µg/mL)
- Papp A→B at […], 1 µM [11]: 25 ×10⁻⁶ cm/s
- hepatocyte CLint [9]: 2.4 µL/min/1e6 cells
- hepatocyte CLint [12]: 5.8 µL/min/1e6 cells
SMILES: CC(C)n1c(=O)n(C)c2cnc3ccc(-c4ccc(OCCCN5CCCCC5)nc4)cc3c21

- IC50 [6]: > 31.6 µM
- logD [7]: 1.7
- solubility [8]: > 1000 µM
- Papp A→B at […], 0.1 µM [10]: 15 ×10⁻⁶ cm/s
- Papp A→B at […], 1 µM [11]: 23 ×10⁻⁶ cm/s
- hepatocyte CLint [9]: 5.7 µL/min/1e6 cells
- hepatocyte CLint [12]: 15 µL/min/1e6 cells
SMILES: CC(C)n1c(=O)n(C)c2cnc3ccc(-c4ccc(OC[C@@H]5CCN(C)C5)nc4)cc3c21

- logD [7]: 3
- solubility [8]: 10 µM (≈ 4.17 µg/mL)
- Papp A→B at […], 0.1 µM [10]: 18 ×10⁻⁶ cm/s
- Papp A→B at […], 1 µM [11]: 32 ×10⁻⁶ cm/s
- hepatocyte CLint [9]: 4.8 µL/min/1e6 cells
- hepatocyte CLint [12]: 44 µL/min/1e6 cells
- pKa [5]: 7.1
SMILES: CC(C)n1c(=O)n(C)c2cnc3ccc(-c4ccc(N5CC(N(C)C)C5)nc4)cc3c21

- IC50 [6]: > 25.1 µM
- logD [7]: 2.1
- solubility [8]: 421 µM (≈ 171 µg/mL)
- Papp A→B at […], 1 µM [11]: 52 ×10⁻⁶ cm/s
- hepatocyte CLint [9]: 6.1 µL/min/1e6 cells
- hepatocyte CLint [12]: 24 µL/min/1e6 cells
SMILES: CC(C)n1c(=O)n(C)c2cnc3ccc(-c4ccc(OCCN(C)C)nc4)cc3c21

- logD [7]: 3
- solubility [8]: 137 µM (≈ 59 µg/mL)
- Papp A→B at […], 1 µM [11]: 22 ×10⁻⁶ cm/s
- hepatocyte CLint [9]: 3.8 µL/min/1e6 cells
- hepatocyte CLint [12]: 25 µL/min/1e6 cells
SMILES: CC(C)n1c(=O)n(C)c2cnc3ccc(-c4ccc(N5CC[C@H](N(C)C)C5)nc4)cc3c21

- IC50 [6]: > 31.6 µM
- logD [7]: 1.7
- solubility [8]: 928 µM (≈ 398 µg/mL)
- Papp A→B at […], 1 µM [11]: 6 ×10⁻⁶ cm/s
- hepatocyte CLint [9]: < 1 µL/min/1e6 cells
- hepatocyte CLint [12]: 2.4 µL/min/1e6 cells
SMILES: CC(C)n1c(=O)n(C)c2cnc3ccc(-c4ccc(N5CC6(CN(C)C6)C5)nc4)cc3c21

- logD [7]: 2.7
- solubility [8]: 521 µM (≈ 225 µg/mL)
- Papp A→B at […], 0.1 µM [10]: 39 ×10⁻⁶ cm/s
- hepatocyte CLint [9]: < 1 µL/min/1e6 cells
- hepatocyte CLint [12]: 12 µL/min/1e6 cells
- IC50 [13]: > 5.01 µM
- IC50 [14]: 0.501 µM
- IC50 [19]: 1.58 µM
- fraction unbound at 16 h [15]: 0.14
- fraction unbound at 16 h [16]: 0.23
- fraction unbound at 16 h [17]: 0.08
- Vdss [1]: 1.9 L/kg
- half-life [18]: 1.1 h
- bioavailability [2]: 39%
- Vdss [3]: 3.7 L/kg
- half-life [20]: 3.3 h
- bioavailability [4]: 9%
SMILES: COCc1ccc(-c2ccc3ncc4c(c3c2)n([C@@H]2CCOCC2(C)C)c(=O)n4C)cn1
